Columns and labels:
[1] = tested on: blastopore upper lip of early gastrula of a Xenopus; assay: Timing of retinoic acid treatment: preculture of blastopore upper lip before one hour treatment; format: cell-based; settings: 10^−4 M, treated 1 hour, cultured 10 days
Method: Regarding the other tissues, an intestinal epithelium was formed aside from notochord and mesenchyme in those precultured for 0 and 5 hours. However, as to those treated with retinoic acid after preculture for more than 15 hours, the formation of intestinal epithelium was suppressed and the differentiation rate of epithelium, coelomic epithelium and pharyngeal epithelium increased.

[2] = tested on: blastopore upper lip of early gastrula of a Xenopus; assay: Tissue differentiation of blastopore upper lip cultured continuously in retinoic acid solution for 10 days; format: cell-based
[3] = preculture 0 hours, 34 specimens
[4] = preculture 5 hours, 36 specimens
[5] = preculture 15 hours, 40 specimens
[6] = preculture 25 hours, 34 specimens
[7] = 10^−5 M, continuous 10 days, 17 specimens

CC1=C(/C=C/C(C)=C/C=C/C(C)=C/C(=O)O)C(C)(C)CCC1 [Retinoic acid, retinoic acid]
23 (68): Mesenchyme differentiated, specimens (%) [1, 3]
2 (12): Coelomic epithelium differentiated, specimens (%) [2, 7]
33 (97): Notochord differentiated, specimens (%) [1, 3] | Notochord differentiated, specimens (%) [1, 6]
1 (3): Muscle differentiated, specimens (%) [1, 3] | Muscle differentiated, specimens (%) [1, 6]
all the explants died: survival of explants while being cultured ([2]; 10^−4 M, continuous treatment)
34 (100): Intestinal epithelium differentiated, specimens (%) [1, 3] | Mesenchyme differentiated, specimens (%) [1, 6] | Pharyngeal epithelium differentiated, specimens (%) [1, 6]
27 (75): Pharyngeal epithelium differentiated, specimens (%) [1, 4]
5 (14): Epidermis differentiated, specimens (%) [1, 4]
36 (100): Notochord differentiated, specimens (%) [1, 4]
28 (82): Epidermis differentiated, specimens (%) [1, 6]
24 (71): Pancreas differentiated, specimens (%) [1, 3]
13 (33): Epidermis differentiated, specimens (%) [1, 5]
7 (41): Epidermis differentiated, specimens (%) [2, 7]
0 (0): Atypical epidermis differentiated, specimens (%) [1, 3] | Cartilage differentiated, specimens (%) [1, 3] | Cement gland differentiated, specimens (%) [1, 3] | Coelomic epithelium differentiated, specimens (%) [1, 3] | Ear vesicle differentiated, specimens (%) [1, 3] | Eye or its fragments differentiated, specimens (%) [1, 3] | Gastric gland differentiated, specimens (%) [1, 3] | Hemocyte differentiated, specimens (%) [1, 3] | Neural tissue differentiated, specimens (%) [1, 3] | Pronephros differentiated, specimens (%) [1, 3] | Atypical epidermis differentiated, specimens (%) [1, 4] | Cartilage differentiated, specimens (%) [1, 4] | Cement gland differentiated, specimens (%) [1, 4] | Coelomic epithelium differentiated, specimens (%) [1, 4] | Ear vesicle differentiated, specimens (%) [1, 4] | Eye or its fragments differentiated, specimens (%) [1, 4] | Gastric gland differentiated, specimens (%) [1, 4] | Hemocyte differentiated, specimens (%) [1, 4] | Muscle differentiated, specimens (%) [1, 4] | Neural tissue differentiated, specimens (%) [1, 4] | Pronephros differentiated, specimens (%) [1, 4] | Atypical epidermis differentiated, specimens (%) [1, 5] | Cartilage differentiated, specimens (%) [1, 5] | Cement gland differentiated, specimens (%) [1, 5] | Ear vesicle differentiated, specimens (%) [1, 5] | Eye or its fragments differentiated, specimens (%) [1, 5] | Hemocyte differentiated, specimens (%) [1, 5] | Muscle differentiated, specimens (%) [1, 5] | Neural tissue differentiated, specimens (%) [1, 5] | Pronephros differentiated, specimens (%) [1, 5] | Atypical epidermis differentiated, specimens (%) [1, 6] | Cartilage differentiated, specimens (%) [1, 6] | Cement gland differentiated, specimens (%) [1, 6] | Ear vesicle differentiated, specimens (%) [1, 6] | Eye or its fragments differentiated, specimens (%) [1, 6] | Gastric gland differentiated, specimens (%) [1, 6] | Hemocyte differentiated, specimens (%) [1, 6] | Neural tissue differentiated, specimens (%) [1, 6] | Pancreas differentiated, specimens (%) [1, 6] | Pronephros differentiated, specimens (%) [1, 6] | Atypical epidermis differentiated, specimens (%) [2, 7] | Cartilage differentiated, specimens (%) [2, 7] | Cement gland differentiated, specimens (%) [2, 7] | Ear vesicle differentiated, specimens (%) [2, 7] | Eye or its fragments differentiated, specimens (%) [2, 7] | Gastric gland differentiated, specimens (%) [2, 7] | Hemocyte differentiated, specimens (%) [2, 7] | Muscle differentiated, specimens (%) [2, 7]
20 (59): Yolk-rich cell differentiated, specimens (%) [1, 6]
11 (32): Epidermis differentiated, specimens (%) [1, 3]
5 (15): Intestinal epithelium differentiated, specimens (%) [1, 6]
33 (92): Intestinal epithelium differentiated, specimens (%) [1, 4]
40 (95): Mesenchyme differentiated, specimens (%) [1, 5]
16 (47): Coelomic epithelium differentiated, specimens (%) [1, 6]
30 (83): Mesenchyme differentiated, specimens (%) [1, 4] | Yolk-rich cell differentiated, specimens (%) [1, 4]
32 (94): Yolk-rich cell differentiated, specimens (%) [1, 3]
19 (53): Pancreas differentiated, specimens (%) [1, 4]
25 (74): Pharyngeal epithelium differentiated, specimens (%) [1, 3]
8 (47): Intestinal epithelium differentiated, specimens (%) [2, 7] | Mesenchyme differentiated, specimens (%) [2, 7]

From patent US20030186434A1, “Method of forming vertebrate pancreas in vitro” (priority 2002, published 2003)
